Among the data in patent US20250197372A1 (priority 2020, published 2025) are IC50 values, retold here.

As a reminder, the IC50 is the concentration that inhibits the measured activity by half.

What all share (type): biochemical
The target in test [1] is rat sucrase (partially purified alpha-glucosidase from intestinal rat powder) (Rattus norvegicus, UniProt P23739). The experiment in a line: Intestinal alpha-glucosidase assay, sucrose substrate (Glucose GO Kit). The method, boiled down: (§1)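 First step: 60 min, 37 °C, compound with partially purified rat intestinal alpha-glucosidase. Next, maltose or sucrose for 30 min at 37 °C, ended at 90 °C for 5 min. Glucose quantified enzymatically; concentration–inhibition data fitted 4-PL for IC50.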
Chain of rat sucrase (partially purified alpha-glucosidase from intestinal rat powder) (P23739 whole entry): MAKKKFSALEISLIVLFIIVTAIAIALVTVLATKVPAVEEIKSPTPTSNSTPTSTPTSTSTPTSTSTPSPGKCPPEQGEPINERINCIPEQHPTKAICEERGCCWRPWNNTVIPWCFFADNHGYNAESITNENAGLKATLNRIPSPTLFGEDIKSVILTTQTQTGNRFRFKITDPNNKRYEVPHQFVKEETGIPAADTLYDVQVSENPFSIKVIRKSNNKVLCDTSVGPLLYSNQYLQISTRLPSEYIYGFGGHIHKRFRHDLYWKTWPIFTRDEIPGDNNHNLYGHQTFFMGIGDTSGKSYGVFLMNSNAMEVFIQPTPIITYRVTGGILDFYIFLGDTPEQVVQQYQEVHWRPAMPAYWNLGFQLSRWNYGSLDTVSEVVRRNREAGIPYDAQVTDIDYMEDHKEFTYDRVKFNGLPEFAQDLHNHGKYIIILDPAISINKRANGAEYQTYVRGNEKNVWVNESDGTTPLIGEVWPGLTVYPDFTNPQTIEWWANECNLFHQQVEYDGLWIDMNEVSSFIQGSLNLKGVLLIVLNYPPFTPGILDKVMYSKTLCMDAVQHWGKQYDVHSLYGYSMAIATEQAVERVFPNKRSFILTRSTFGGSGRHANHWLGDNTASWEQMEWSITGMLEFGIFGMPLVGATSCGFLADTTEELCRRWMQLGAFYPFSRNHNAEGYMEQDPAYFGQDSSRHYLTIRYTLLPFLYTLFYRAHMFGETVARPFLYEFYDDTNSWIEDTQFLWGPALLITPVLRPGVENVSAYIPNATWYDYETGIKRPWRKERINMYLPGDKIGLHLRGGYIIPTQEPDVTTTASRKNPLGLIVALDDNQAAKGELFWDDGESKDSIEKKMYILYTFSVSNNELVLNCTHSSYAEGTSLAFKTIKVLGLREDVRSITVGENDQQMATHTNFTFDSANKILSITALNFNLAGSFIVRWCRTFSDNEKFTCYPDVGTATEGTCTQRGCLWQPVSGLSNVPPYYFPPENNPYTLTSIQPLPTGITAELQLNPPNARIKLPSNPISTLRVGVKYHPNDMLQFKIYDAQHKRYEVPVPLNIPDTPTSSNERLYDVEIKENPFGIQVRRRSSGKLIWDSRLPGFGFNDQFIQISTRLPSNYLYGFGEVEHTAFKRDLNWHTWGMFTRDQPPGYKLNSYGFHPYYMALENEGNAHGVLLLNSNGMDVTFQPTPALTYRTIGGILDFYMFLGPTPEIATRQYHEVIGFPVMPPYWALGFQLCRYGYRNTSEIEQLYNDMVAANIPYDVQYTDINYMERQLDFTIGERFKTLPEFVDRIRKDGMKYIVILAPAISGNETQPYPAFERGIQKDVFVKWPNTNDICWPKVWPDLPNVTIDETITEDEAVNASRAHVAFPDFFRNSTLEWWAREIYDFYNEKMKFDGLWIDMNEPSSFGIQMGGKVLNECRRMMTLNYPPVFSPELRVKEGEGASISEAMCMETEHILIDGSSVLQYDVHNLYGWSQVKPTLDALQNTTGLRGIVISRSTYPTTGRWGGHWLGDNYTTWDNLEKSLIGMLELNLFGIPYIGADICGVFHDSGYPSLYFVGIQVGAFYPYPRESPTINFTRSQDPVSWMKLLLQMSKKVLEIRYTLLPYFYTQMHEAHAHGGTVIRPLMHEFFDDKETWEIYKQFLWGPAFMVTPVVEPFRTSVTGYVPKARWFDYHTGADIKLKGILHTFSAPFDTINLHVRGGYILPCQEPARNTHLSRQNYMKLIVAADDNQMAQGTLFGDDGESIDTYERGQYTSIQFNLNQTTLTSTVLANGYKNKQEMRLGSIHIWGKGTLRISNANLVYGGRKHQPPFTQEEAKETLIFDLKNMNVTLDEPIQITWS

Test [2] addresses recombinant human GAA (acid alpha-glucosidase) (Homo sapiens, UniProt P10253). The experiment in a line: Acid alpha-glucosidase (GAA) assay (4-methylumbelliferyl-alpha-D-pyranoside substrate, fluorescence). In a few lines:
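IC50 from 4-PL curve fit of percent inhibition, based on fluorescence (365/440 nm) of released methylumbelliferone relative to uninhibited enzyme. Compound dilutions and human GAA incubated 60 min, 37 °C, before 20 min substrate reaction at 37 °C, quenched at pH 10.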

Test [3] addresses T1, recombinant alpha-glucosidase II (murine full-length glucosidase II, alpha and beta subunits, Glu 2) (Mus musculus, UniProt Q8BHN3).
T1 construct: made in house; host or cells: HEK-293T cells transduced with BacMam viruses (75% alpha, 25% beta); protein harvested from culture supernatant
The experiment in a line: Alpha-glucosidase II assay (4-methylumbelliferyl-alpha-D-pyranoside substrate, fluorescence). As to conditions: Glucosidase 2; read-out: Glu2 IC50.

The target of test [4] is T2, recombinant human GBA (beta-glucocerebrosidase) (Homo sapiens, UniProt P04062).
T2 sequence (P04062 40-536): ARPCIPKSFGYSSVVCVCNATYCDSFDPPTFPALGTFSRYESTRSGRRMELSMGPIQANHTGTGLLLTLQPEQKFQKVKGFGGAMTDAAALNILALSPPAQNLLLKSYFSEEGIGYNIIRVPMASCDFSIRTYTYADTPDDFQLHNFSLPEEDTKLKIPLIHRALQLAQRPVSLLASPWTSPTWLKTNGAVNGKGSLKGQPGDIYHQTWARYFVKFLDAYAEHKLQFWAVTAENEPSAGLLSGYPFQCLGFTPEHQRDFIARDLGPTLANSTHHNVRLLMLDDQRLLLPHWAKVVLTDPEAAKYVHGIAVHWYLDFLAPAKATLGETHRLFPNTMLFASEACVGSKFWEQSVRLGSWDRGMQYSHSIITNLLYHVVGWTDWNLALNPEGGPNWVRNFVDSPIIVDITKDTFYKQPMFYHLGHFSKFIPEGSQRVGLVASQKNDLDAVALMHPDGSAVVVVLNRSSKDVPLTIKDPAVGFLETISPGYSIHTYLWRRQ
The test is described as follows: Beta-glucocerebrosidase (GBA, glucosylceramidase) assay (4-methylumbelliferyl-beta-D-pyranoside substrate, fluorescence). The method, boiled down: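 IC50 by four-parameter fit of percent inhibition, with product fluorescence (365/440 nm) read after a glycine/NaOH pH 10 stop. Compound and commercial recombinant human enzyme were incubated 60 min at 37 °C before a further 60 min at 37 °C with 4-methylumbelliferyl-beta-D-pyranoside substrate.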

Test [5] concerns the target rat maltase (partially purified alpha-glucosidase from intestinal rat powder). The experiment in a line: Intestinal alpha-glucosidase assay, maltose substrate (Glucose GO Kit). In a few lines:
as §1

Structures are written as SMILES.

T1 sequence (O08795 15-521): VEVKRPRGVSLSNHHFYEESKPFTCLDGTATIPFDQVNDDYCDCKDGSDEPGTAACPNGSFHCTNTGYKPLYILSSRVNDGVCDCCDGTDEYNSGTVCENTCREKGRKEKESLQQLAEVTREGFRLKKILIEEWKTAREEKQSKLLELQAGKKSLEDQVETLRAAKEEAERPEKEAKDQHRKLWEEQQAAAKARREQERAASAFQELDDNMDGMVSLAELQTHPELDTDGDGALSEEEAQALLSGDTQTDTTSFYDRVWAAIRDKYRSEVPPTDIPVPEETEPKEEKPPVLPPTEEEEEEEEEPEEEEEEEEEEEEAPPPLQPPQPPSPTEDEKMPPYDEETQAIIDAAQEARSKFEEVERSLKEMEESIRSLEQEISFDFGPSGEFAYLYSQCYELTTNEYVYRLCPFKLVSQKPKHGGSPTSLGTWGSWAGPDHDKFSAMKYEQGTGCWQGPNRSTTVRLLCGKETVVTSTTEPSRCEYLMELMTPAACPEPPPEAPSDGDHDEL
T1 sequence (Q8BHN3 33-944): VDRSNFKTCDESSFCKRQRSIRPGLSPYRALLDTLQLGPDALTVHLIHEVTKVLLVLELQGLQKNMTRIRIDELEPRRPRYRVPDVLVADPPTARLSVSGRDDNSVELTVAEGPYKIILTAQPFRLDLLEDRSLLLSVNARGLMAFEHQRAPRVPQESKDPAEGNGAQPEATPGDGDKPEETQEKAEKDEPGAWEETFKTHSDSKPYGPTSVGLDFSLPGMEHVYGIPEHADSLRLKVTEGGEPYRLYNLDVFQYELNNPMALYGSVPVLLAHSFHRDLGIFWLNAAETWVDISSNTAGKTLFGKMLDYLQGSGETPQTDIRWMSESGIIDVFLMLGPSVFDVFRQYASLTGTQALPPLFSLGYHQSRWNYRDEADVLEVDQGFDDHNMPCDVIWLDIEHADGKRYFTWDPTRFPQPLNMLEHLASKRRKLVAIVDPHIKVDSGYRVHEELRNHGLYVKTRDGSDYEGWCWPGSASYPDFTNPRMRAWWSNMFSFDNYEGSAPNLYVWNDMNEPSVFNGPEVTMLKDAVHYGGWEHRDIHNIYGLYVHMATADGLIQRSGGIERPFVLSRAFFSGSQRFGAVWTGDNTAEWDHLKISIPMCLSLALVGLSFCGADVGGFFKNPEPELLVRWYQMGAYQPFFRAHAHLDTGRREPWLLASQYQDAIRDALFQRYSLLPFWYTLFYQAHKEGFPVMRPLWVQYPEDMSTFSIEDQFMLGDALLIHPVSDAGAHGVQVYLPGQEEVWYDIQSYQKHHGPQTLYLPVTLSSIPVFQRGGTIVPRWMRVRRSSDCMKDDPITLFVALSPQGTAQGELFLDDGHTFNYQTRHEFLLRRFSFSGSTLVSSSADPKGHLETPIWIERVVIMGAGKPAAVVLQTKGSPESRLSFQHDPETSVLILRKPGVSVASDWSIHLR

Take `COc1cc(NCCCCCCN2C[C@H](O)[C@@H](O)[C@H](O)[C@H]2CO)cc(C2=CCCO2)c1` [Compound 1147, (2R,3R,4R,5S)-1-(6-{[3-(4,5-dihydrofuran-2-yl)-5-methoxyphenyl]amino}hexyl)-2-(hydroxymethyl)piperidine-3,4,5-triol]: the IC50 in test [1] was found to be 0.04 µM; in test [2], 0.038 µM; in test [3], 0.034 µM; in test [4] it was 1.98 µM; in test [5], 0.008 µM.
Taken in the same sequence, the figures for `COc1cc(NCCCCCCN2C[C@H](O)[C@@H](O)[C@H](O)[C@H]2CO)cc(C2CCCCC2)c1` [Compound 1148, (2R,3R,4R,5S)-1-{6-[(3-cyclohexyl-5-methoxyphenyl)amino]hexyl}-2-(hydroxymethyl)piperidine-3,4,5-triol] were 0.001 µM, 0.088 µM, less than 0.001 µM, 0.002 µM and less than 0.001 µM.
Taken in the same sequence, the figures for `COc1cc(NCCCCCCN2C[C@H](O)[C@@H](O)[C@H](O)[C@H]2CO)cc(C2=CCCCC2)c1` [Compound 1149, (2R,3R,4R,5S)-1-(6-{[3-(cyclohex-1-en-1-yl)-5-methoxy-phenyl]amino}hexyl)-2-(hydroxymethyl)piperidine-3,4,5-triol] were less than 0.001 µM, 0.066 µM, less than 0.001 µM, 0.056 µM and less than 0.001 µM.
For `COc1cc(NCCCCCCN2C[C@H](O)[C@@H](O)[C@H](O)[C@H]2CO)cc(-c2ccccc2)c1` [Compound 1150, (2R,3R,4R,5S)-2-(hydroxymethyl)-1-[6-({5-methoxy-[1,1′-biphenyl]-3-yl}amino)hexyl]piperidine-3,4,5-triol], the IC50 was less than 0.001 µM in test [1]; 0.045 µM in test [2]; less than 0.001 µM in test [3]; 0.193 µM in test [4]; less than 0.001 µM in test [5].
Regarding `CC(C)(C)c1cc(NCCCCCCN2C[C@H](O)[C@@H](O)[C@H](O)[C@H]2CO)cc(-c2ncccn2)c1` [Compound 1151, (2R,3R,4R,5S)-1-(6-{[3-tert-butyl-5-(pyrimidin-2-yl)phenyl]amino}hexyl)-2-(hydroxymethyl)piperidine-3,4,5-triol], the IC50 in test [1] was less than 0.001 µM; in test [2] it was 0.024 µM; in test [3], less than 0.001 µM; in test [4], 0.299 µM; in test [5] it was less than 0.001 µM.
For `COc1cc(NCCc2ccc(CCN3C[C@H](O)[C@@H](O)[C@H](O)[C@H]3CO)cc2)cc(-c2ccco2)c1` [Compound 1153, (2R,3R,4R,5S)-1-{2-[4-(2-{[3-(furan-2-yl)-5-methoxy-phenyl]amino}ethyl)phenyl]ethyl}-2-(hydroxymethyl)piperidine-3,4,5-triol], the IC50 in test [1] came to 2.5 µM; in test [2], 0.057 µM; in test [3] it was 0.544 µM; in test [4], 1.09 µM; in test [5], 0.321 µM.
The like results for `COc1cc(NCCc2ccc(CCN3C[C@H](O)[C@@H](O)[C@H](O)[C@H]3CO)cc2)cc(C2=CCOCC2)c1` [Compound 1154, (2R,3R,4R,5S)-1-{2-[4-(2-{[3-(3,6-dihydro-2H-pyran-4-yl)-5-methoxyphenyl]amino}ethyl)phenyl]ethyl}-2-(hydroxymethyl)piperidine-3,4,5-triol] were, in that order, 2.88 µM, 0.296 µM, 0.002 µM, 1.7 µM and 0.624 µM.
In the case of `COc1cc(NCCc2ccc(CCN3C[C@H](O)[C@@H](O)[C@H](O)[C@H]3CO)cc2)cc(C2=COCCO2)c1` [Compound 1155, (2R,3R,4R,5S)-1-{2-[4-(2-{[3-(5,6-dihydro-1,4-dioxin-2-yl)-5-methoxyphenyl]amino}ethyl)phenyl]ethyl}-2-(hydroxymethyl)piperidine-3,4,5-triol], the IC50 in test [1] is 0.726 µM; in test [2], 0.455 µM; in test [3], less than 0.001 µM; in test [4] it was 3.54 µM; in test [5], 0.418 µM.
Taken in the same sequence, the figures for `COc1cc(NCCc2ccc(CCN3C[C@H](O)[C@@H](O)[C@H](O)[C@H]3CO)cc2)cc(-c2ncccn2)c1` [Compound 1156, (2R,3R,4R,5S)-2-(hydroxymethyl)-1-{2-[4-(2-{[3-methoxy-5-(pyrimidin-2-yl)phenyl]amino}ethyl)phenyl]ethyl}piperidine-3,4,5-triol] were 0.61 µM, 0.814 µM, 0.118 µM, 7.13 µM and 0.287 µM.
Taken in the same sequence, the figures for `COc1cc(NCCc2ccc(CCN3C[C@H](O)[C@@H](O)[C@H](O)[C@H]3CO)cc2)cc(-c2cccnn2)c1` [Compound 1157, (2R,3R,4R,5S)-2-(hydroxymethyl)-1-{2-[4-(2-{[3-methoxy-5-(pyridazin-3-yl)phenyl]amino}ethyl)phenyl]ethyl}piperidine-3,4,5-triol] were 0.228 µM, 0.292 µM, 0.004 µM, 4.59 µM and 0.107 µM.
The like results for `OC[C@@H]1[C@@H](O)[C@H](O)[C@@H](O)CN1CCc1ccc(CCNc2cc(Cl)cc(-c3ccco3)c2)cc1` [Compound 1159, (2R,3R,4R,5S)-1-{2-[4-(2-{[3-chloro-5-(furan-2-yl)phenyl]amino}ethyl)phenyl]ethyl}-2-(hydroxymethyl)piperidine-3,4,5-triol] were, in that order, 0.847 µM, less than 0.001 µM, 0.091 µM, 1.05 µM and 0.025 µM.
As to `OC[C@@H]1[C@@H](O)[C@H](O)[C@@H](O)CN1CCc1ccc(CCNc2cc(Cl)cc(C3=COCCO3)c2)cc1` [Compound 1161, (2R,3R,4R,5S)-1-{2-[4-(2-{[3-chloro-5-(5,6-dihydro-1,4-dioxin-2-yl)phenyl]amino}ethyl)phenyl]ethyl}-2-(hydroxymethyl)piperidine-3,4,5-triol], the IC50 in test [1] was 0.74 µM; in test [2], 0.084 µM; in test [3], 0.002 µM; in test [4], 2.82 µM; in test [5], 0.273 µM.
The like results for `OC[C@@H]1[C@@H](O)[C@H](O)[C@@H](O)CN1CCc1ccc(CCNc2cc(Cl)cc(-c3ncccn3)c2)cc1` [Compound 1162, (2R,3R,4R,5S)-1-{2-[4-(2-{[3-chloro-5-(pyrimidin-2-yl)phenyl]amino}ethyl)phenyl]ethyl}-2-(hydroxymethyl)piperidine-3,4,5-triol] were, in that order, 0.476 µM, 0.062 µM, less than 0.001 µM, 2.68 µM and 0.138 µM.
The like results for `OC[C@@H]1[C@@H](O)[C@H](O)[C@@H](O)CN1CCc1ccc(CCNc2cc(Cl)cc(-c3cccnn3)c2)cc1` [Compound 1163, (2R,3R,4R,5S)-1-{2-[4-(2-{[3-chloro-5-(pyridazin-3-yl)phenyl]amino}ethyl)phenyl]ethyl}-2-(hydroxymethyl)piperidine-3,4,5-triol] were, in that order, 0.584 µM, 0.093 µM, less than 0.001 µM, 6.82 µM and 0.309 µM.
